The values below come from ChEMBL document CHEMBL1201862, “PubChem BioAssay data set” (2004).

Test systems include SW-620; ACHN; SR; SK-MEL-2; OVCAR-8; HL-60; HT-29; SNB-75; TK-10; MDA-N; CAKI-1; DU-145; A498; UACC-62; SF-268; LOX IMVI; PC-3; SK-MEL-28; HCC 2998.
Holding throughout (assay): NCI-60 cell line screen, 48 h

Where “and” joins values, the source holds several entries; their conditions need not be identical. Equal entries are not always repeated.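 Test compounds were applied to cells in 96-well plates for 48 hours at 5 doses. GI50 = concentration required for 50% inhibition of growth.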 Calls of active or inactive are those of the source. Rule as the data show it: active = GI50 up to about 1.1 µM and inactive = higher. Where only a bound is given, the exact number is not on record here.

Regarding `CC12CCC(CC(=O)/C1=C(/Br)I)C2(C)C` (configuration not stated), the GI50 was 17 µM (inactive) in the test on SW-620; 18.2 µM (inactive) with ACHN; 15.8 µM (inactive) in the test on SR; 13.7 µM (inactive) in the test on SK-MEL-2; 17.8 µM (inactive) with OVCAR-8; 3.43 µM (inactive) in the test with HL-60. The GI50 is 11.4 µM (inactive) in the test with HT-29; 16.3 µM (inactive) in the test on SNB-75; 18.8 µM (inactive) with TK-10; 12.2 µM (inactive) with MDA-N; 16.9 µM (inactive) with CAKI-1; 17.7 µM (inactive) with DU-145. The GI50 was 19.3 µM (inactive) in the test with A498; 14.5 µM (inactive) in the test with UACC-62; 14.6 µM (inactive) with SF-268; 0.0789 µM (active) with LOX IMVI; 11.1 µM (inactive) with PC-3; 16.2 µM (inactive) in the test with SK-MEL-28.

For the compound `CCOC(=O)[C@H](CCCNC(=O)OC(C)(C)C)NCc1ccc(OC)c(OC)c1`, the GI50 with SW-620, in the test with ACHN, in the test on SR, with SK-MEL-2, in the test on OVCAR-8 and in the test with HCC 2998 was > 100 µM (inactive) in each case. In addition, the GI50 in the test with HL-60, in the test with HT-29, with SNB-75, in the test with TK-10, in the test on CAKI-1 and in the test with A498 was > 100 µM (inactive) throughout. The GI50 with UACC-62, in the test with SF-268, in the test on LOX IMVI and with SK-MEL-28 was > 100 µM (inactive) throughout.

In the case of `CCOC(=O)NC(=O)c1cn(-c2ccc(CCOC(=O)NCCCCCCNC(=O)OCCc3ccc(-n4c(=O)[nH]cc(C(=O)NC(=O)OCC)c4=O)cc3)cc2)c(=O)[nH]c1=O`, the GI50 in the test on SW-620 is > 100 µM (inactive); with ACHN it was 29.4 µM (inactive); with SR, > 62.8 µM (inactive); with SK-MEL-2, > 100 µM (inactive); in the test on OVCAR-8, 40.6 µM (inactive); in the test on HCC 2998, > 100 µM (inactive). In addition, the GI50 was > 100 µM (inactive) in the test on HL-60; > 100 µM (inactive) in the test with HT-29; 27.5 µM (inactive) in the test with SNB-75; 58.3 µM (inactive) with TK-10; > 100 µM (inactive) with CAKI-1; > 80.4 µM (inactive) with A498. The GI50 with UACC-62 is 24.1 µM (inactive); in the test with SF-268, > 49 µM (inactive); with LOX IMVI, 56.6 µM (inactive); in the test on SK-MEL-28 it was > 100 µM (inactive).

For the compound `CCCC(=O)NC(NC1CCCCC1)(C(=O)OCC)C(F)(F)F` (configuration not stated), the GI50 with SW-620, in the test with ACHN, in the test on SR, in the test on SK-MEL-2, with OVCAR-8 and in the test with HCC 2998 was > 100 µM (inactive) in each case. Also, the GI50 in the test with HL-60 is > 100 µM (inactive); in the test on HT-29, > 100 µM (inactive); in the test on SNB-75, 29.7 µM (inactive); with TK-10, > 100 µM (inactive); in the test with MDA-N, > 100 µM (inactive); in the test on DU-145, > 100 µM (inactive). In addition, the GI50 with SF-268, in the test on LOX IMVI, with PC-3 and with SK-MEL-28 was > 100 µM (inactive) in each case.

For the compound `COc1ccc2c(c1)c1c3n2CCNN=C3CCC1`, the GI50 was > 100 µM (inactive) in the test with SW-620; 72.4 µM (inactive) in the test on ACHN; 10.4 µM (inactive) in the test on SR; > 100 µM (inactive) with SK-MEL-2; > 81.1 µM (inactive) in the test with OVCAR-8; > 100 µM (inactive) in the test on HCC 2998. Further, the GI50 with HL-60 was 5.66 µM (inactive); with HT-29, > 100 µM (inactive); in the test on SNB-75, 48.6 µM (inactive); in the test with TK-10, > 53 µM (inactive); in the test with CAKI-1, 24.8 µM (inactive); in the test on A498 it was > 100 µM (inactive). Moreover, the GI50 in the test on UACC-62 was 60.4 µM (inactive); with SF-268 it was 88.7 µM (inactive); in the test with LOX IMVI it was > 64.6 µM (inactive); with SK-MEL-28 it was > 100 µM (inactive).

Consider `CCCCCCCCCCCCC(CCCCCCCCCCCC)OP(=O)(O)O`, for which the GI50 in the test on SW-620 was > 100 µM (inactive); in the test with ACHN, 76.2 µM (inactive); with SR it was > 100 µM (inactive); in the test with SK-MEL-2 it was 65.2 µM (inactive); in the test with OVCAR-8 it was > 100 µM (inactive); with HCC 2998 it was > 100 µM (inactive). Also, the GI50 with HL-60 is 47.3 µM (inactive); in the test with HT-29, > 100 µM (inactive); in the test with SNB-75, 43.4 µM (inactive); in the test with TK-10, > 100 µM (inactive); in the test on CAKI-1 it was > 100 µM (inactive); in the test with A498, 20.6 µM (inactive). Further, the GI50 with UACC-62, in the test on SF-268, with LOX IMVI and in the test on SK-MEL-28 was > 100 µM (inactive) each time.

In the case of `CC1OC(OC2C(OC(=O)[C@]34CCC(C)(C)C[C@H]3C3=CC[C@@H]5[C@@]6(C)CC[C@H](OC7OC(C(=O)O)C(O)C(O)C7O)C(C)(C)[C@@H]6CC[C@@]5(C)[C@]3(C)CC4)OCC(O)C2O)C(O)C(O)C1OC1OCC(O)C(O)C1O` (some centres not stated), the GI50 in the test with SK-MEL-2 was 19.4 µM (inactive) and 33.1 µM (inactive); in the test on OVCAR-8 it was > 100 µM (inactive); in the test with HCC 2998, 18.7 µM (inactive) and 19.2 µM (inactive); in the test on HL-60 it was 21.8 µM (inactive); in the test with HT-29 it was 15.4 µM (inactive) and 28.2 µM (inactive); with MDA-N, 17.9 µM (inactive) and 18.2 µM (inactive). Besides, the GI50 was 30 µM (inactive) and 40.4 µM (inactive) with CAKI-1; 17.8 µM (inactive) and 18.6 µM (inactive) in the test with A498; 39.4 µM (inactive) and 28 µM (inactive) in the test on UACC-62; > 100 µM (inactive) and 53.2 µM (inactive) with SF-268; 66.8 µM (inactive) in the test on LOX IMVI; 18.1 µM (inactive) and 24 µM (inactive) in the test with SK-MEL-28.

Consider `CC(C)NC(C)Cc1ccccc1` (configuration not stated), for which the GI50 in the test on SW-620, with ACHN, with SR, in the test with SK-MEL-2, in the test with OVCAR-8 and with HCC 2998 was > 100 µM (inactive) each time. The GI50 in the test with HL-60, in the test with HT-29, in the test on SNB-75, with TK-10, with CAKI-1 and in the test on A498 was > 100 µM (inactive) in each case. The GI50 in the test with UACC-62, with SF-268, with LOX IMVI and in the test with SK-MEL-28 was > 100 µM (inactive) throughout.

Take `CCC(=O)N/N=C(\C=C\c1cccc(O)c1)c1sc(Nc2ccc(C)cc2[N+](=O)[O-])nc1C`: the GI50 is > 100 µM (inactive) with SW-620; > 100 µM (inactive) in the test with ACHN; 73.8 µM (inactive) in the test on SR; > 100 µM (inactive) with SK-MEL-2; 71.3 µM (inactive) in the test on OVCAR-8; > 100 µM (inactive) in the test with HCC 2998. Besides, the GI50 is 43.4 µM (inactive) in the test with HL-60; 18.6 µM (inactive) in the test on HT-29; 14.9 µM (inactive) with SNB-75; > 100 µM (inactive) with TK-10; > 100 µM (inactive) in the test with CAKI-1; > 100 µM (inactive) in the test on A498. The GI50 with UACC-62 is > 100 µM (inactive); in the test with SF-268, > 100 µM (inactive); in the test on LOX IMVI, 58.6 µM (inactive); in the test on SK-MEL-28, > 100 µM (inactive).
